Data taken from US20260091026A1, “METHODS OF TREATING INFLAMMATORY DISEASES” (INTERLINE THERAPEUTICS, INC., priority 2023, published 2026).

Columns and labels:
RIPK2 (KD)/XIAP (BIR2) = molecular target: T1, RIPK2 (KD)/XIAP (BIR2) (Homo sapiens, UniProt O43353); assay: RIPK2-XIAP binding competition PPI assay (TR-FRET); conditions: for Emax: 50 nM of GSK583 = -100% activity, read-out: PPI Amax; for IC50: GST-RIPK2 / His-XIAP (BIR2)-avi, 120 min at 23° C.
T1 construct: made in house; host or cells: baculovirus-infected Sf9 cells
T1 sequence (O43353 1-310): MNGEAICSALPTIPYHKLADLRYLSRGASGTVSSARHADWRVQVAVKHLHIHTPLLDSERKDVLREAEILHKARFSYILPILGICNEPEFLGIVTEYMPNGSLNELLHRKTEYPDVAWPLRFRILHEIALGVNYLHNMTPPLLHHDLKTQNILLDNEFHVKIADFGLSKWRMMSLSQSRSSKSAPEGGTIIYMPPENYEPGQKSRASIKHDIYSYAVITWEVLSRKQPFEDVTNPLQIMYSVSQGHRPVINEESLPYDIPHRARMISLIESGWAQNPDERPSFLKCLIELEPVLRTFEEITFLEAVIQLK
In short: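 TR-FRET competition between GST-RIPK2 (aa 1-310, 1 nM) and His-XIAP BIR2-avi (aa 152-231, 25 nM), both Sf9-expressed, detected with anti-His-XL665 and anti-GST-Tb in Tris pH 7.5 buffer with MgCl2, DTT and vanadate. Incubation was 120 min at 23 °C; the 665/520 nm ratio was normalized to no inhibitor (0%) and 50 nM GSK583 (−100%).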

[1] = test system: THP1-Dual cells, NF-κB pathway (SEAP); assay: THP-1 Dual cell SEAP assay (L18-MDP stimulated); assay type: cell-based; conditions: Homo sapiens, 10 ng/mL L18-MDP, 20-24 h, SEAP readout, read-out: IFNγ THP1 IC50
In short: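 About 25,000 THP1-Dual cells per well were preincubated 30 min with serially diluted compound, then stimulated overnight (20-24 h, 37 °C) with 10 ng/mL L18-MDP (final). NF-κB-driven SEAP in supernatant was read with QUANTI-Blue at OD 620-655 nm after 2 h; % inhibition versus DMSO/L18-MDP wells was fitted by non-linear regression to give IC50.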

SMILES	Emax (RIPK2 (KD)/XIAP (BIR2)) [%]	IC50 (RIPK2 (KD)/XIAP (BIR2)) [nM]	IC50 [1] [nM]
CC[C@@H](NC(=O)c1cc(-c2cnc3cc(OC)c(S(=O)(=O)C(C)(C)C)cn23)nn1C)c1ccccn1 [Example 61, (R)-3-(6-(tert-butylsulfonyl)-7-methoxyimidazo[1,2-a]pyridin-3-yl)-1-methyl-N-(1-(pyridin-2-yl)propyl)-1H-pyrazole-5-carboxamide]	≥ 80	100 to 1000	> 2500
CNc1nccn2c(-c3cc(C(=O)NCc4ccccc4)n(C)n3)cnc12 [Example 189, N-benzyl-1-methyl-3-(8-(methylamino)imidazo[1,2-a]pyrazin-3-yl)-1H-pyrazole-5-carboxamide]	55 to 80	> 1000	> 2500
COc1cc2ncc(-c3cc(C(=O)NCc4ncc(C)s4)n(C)n3)n2cc1S(=O)(=O)C(C)(C)C [Example 89, 3-(6-(tert-butylsulfonyl)-7-methoxyimidazo[1,2-a]pyridin-3-yl)-1-methyl-N-((5-methylthiazol-2-yl)methyl)-1H-pyrazole-5-carboxamide]	≥ 80	10 to 100	100 to 500
COc1cc2ncc(-c3cc(C(=O)N[C@H](C)c4ccc(F)cn4)n(C)n3)n2cc1S(=O)(=O)C(C)(C)C [Example 48, (R)-3-(6-(tert-butylsulfonyl)-7-methoxyimidazo[1,2-a]pyridin-3-yl)-N-(1-(5-fluoropyridin-2-yl)ethyl)-1-methyl-1H-pyrazole-5-carboxamide]	≥ 80	10 to 100	500 to 2500
COc1cc2ncc(-c3cc(C(=O)NCc4nn(C)c5ccccc45)n(C)n3)n2cc1S(=O)(=O)C(C)(C)C [Example 15, 3-(6-(tert-butylsulfonyl)-7-methoxyimidazo[1,2-a]pyridin-3-yl)-1-methyl-N-((1-methyl-1H-indazol-3-yl)methyl)-1H-pyrazole-5-carboxamide]	55 to 80	100 to 1000	> 2500
COc1cc2ncc(-c3cc(C(=O)N[C@H](C)c4ccn(C)n4)n(C)n3)n2cc1S(=O)(=O)C(C)(C)C [Example 59, (R)-3-(6-(tert-butylsulfonyl)-7-methoxyimidazo[1,2-a]pyridin-3-yl)-1-methyl-N-(1-(1-methyl-1H-pyrazol-3-yl)ethyl)-1H-pyrazole-5-carboxamide]	≥ 80	100 to 1000	500 to 2500
C[C@@H](NC(=O)c1cc(-c2cnc3cc(OCCO)c(S(=O)(=O)C(C)(C)C)cn23)nn1C)c1ncccn1 [Example 108, (R)-3-(6-(tert-butylsulfonyl)-7-(2-hydroxyethoxy)imidazo[1,2-a]pyridin-3-yl)-1-methyl-N-(1-(pyrimidin-2-yl)ethyl)-1H-pyrazole-5-carboxamide]	≥ 80	10 to 100	100 to 500
COc1cc2ncc(-c3cc(C(=O)NCc4n[nH]c5ccccc45)n(C)n3)n2cc1S(=O)(=O)C(C)(C)C [Example 14, N-((1H-indazol-3-yl)methyl)-3-(6-(tert-butylsulfonyl)-7-methoxyimidazo[1,2-a]pyridin-3-yl)-1-methyl-1H-pyrazole-5-carboxamide]	≥ 80	< 10	100 to 500
COc1cn2ncc(-c3cc(C(=O)N[C@H](C)c4ncccc4F)n(C)n3)c2cc1S(=O)(=O)C(C)(C)C [Example 114, (R)-3-(5-(tert-butylsulfonyl)-6-methoxypyrazolo[1,5-a]pyridin-3-yl)-N-(1-(3-fluoropyridin-2-yl)ethyl)-1-methyl-1H-pyrazole-5-carboxamide]	≥ 80	10 to 100	100 to 500
COc1cc2ncc(-c3cc(C(=O)NCc4cccn5ccnc45)n(C)n3)n2cc1S(=O)(=O)C(C)(C)C [Example 21, 3-(6-(tert-butylsulfonyl)-7-methoxyimidazo[1,2-a]pyridin-3-yl)-N-(imidazo[1,2-a]pyridin-8-ylmethyl)-1-methyl-1H-pyrazole-5-carboxamide]	≥ 80	100 to 1000	> 2500
COc1cc2ncc(-n3cc(C(=O)NCc4ccccc4)c(C)n3)n2cc1S(=O)(=O)C(C)(C)C [Example 148, N-benzyl-1-(6-(tert-butylsulfonyl)-7-methoxyimidazo[1,2-a]pyridin-3-yl)-3-methyl-1H-pyrazole-4-carboxamide]	≥ 80	100 to 1000	> 2500
COc1cc2ncc(-c3cc(C(=O)NCc4ncccc4C#N)n(C)n3)n2cc1S(=O)(=O)C(C)(C)C [Example 82, 3-(6-(tert-butylsulfonyl)-7-methoxyimidazo[1,2-a]pyridin-3-yl)-N-((3-cyanopyridin-2-yl)methyl)-1-methyl-1H-pyrazole-5-carboxamide]	≥ 80	10 to 100	500 to 2500
COc1cc2ncc(-c3cc(C(=O)NCc4nc(C)cs4)n(C)n3)n2cc1S(=O)(=O)C(C)(C)C [Example 88, 3-(6-(tert-butylsulfonyl)-7-methoxyimidazo[1,2-a]pyridin-3-yl)-1-methyl-N-((4-methylthiazol-2-yl)methyl)-1H-pyrazole-5-carboxamide]	≥ 80	100 to 1000	500 to 2500
CCn1nc(-c2cnc3cc(OC)c(S(=O)(=O)C(C)(C)C)cn23)cc1C(=O)N[C@H](C)c1nccs1 [Example 98, (R)-3-(6-(tert-butylsulfonyl)-7-methoxyimidazo[1,2-a]pyridin-3-yl)-1-ethyl-N-(1-(thiazol-2-yl)ethyl)-1H-pyrazole-5-carboxamide]	≥ 80	< 10	< 100
COc1cc2ncc(-c3cc(C(=O)N[C@H](C)c4ncccc4F)n(C)n3)n2cc1S(=O)(=O)C(C)(C)C [Example 50, (R)-3-(6-(tert-butylsulfonyl)-7-methoxyimidazo[1,2-a]pyridin-3-yl)-N-(1-(3-fluoropyridin-2-yl)ethyl)-1-methyl-1H-pyrazole-5-carboxamide]	≥ 80	10 to 100	100 to 500
CCn1nc(-c2cnc3cc(OCCO)c(S(=O)(=O)C(C)(C)C)cn23)cc1C(=O)N[C@H](C)c1ncc(C)s1 [Example 130, (R)-3-(6-(tert-butylsulfonyl)-7-(2-hydroxyethoxy)imidazo[1,2-a]pyridin-3-yl)-1-ethyl-N-(1-(5-methylthiazol-2-yl)ethyl)-1H-pyrazole-5-carboxamide]	≥ 80	< 10	< 100
COc1cc2ncc(-c3cc(NC(=O)O[C@H](C)c4ccccc4)n(C)n3)n2cc1S(=O)(=O)C(C)(C)C [Example 151, (R)-1-phenylethyl (3-(6-(tert-butylsulfonyl)-7-methoxyimidazo[1,2-a]pyridin-3-yl)-1-methyl-1H-pyrazol-5-yl)carbamate]	≥ 80	< 10	< 100
CCn1nc(-c2cnc3cc(OCCO)c(S(=O)(=O)C(C)(C)C)cn23)cc1C(=O)NCc1ncc(C)s1 [Example 126, 3-(6-(tert-butylsulfonyl)-7-(2-hydroxyethoxy)imidazo[1,2-a]pyridin-3-yl)-1-ethyl-N-((5-methylthiazol-2-yl)methyl)-1H-pyrazole-5-carboxamide]	≥ 80	< 10	< 100
COc1cc2ncc(-c3cc(C(=O)NCc4c5ccccc5nn4C)n(C)n3)n2cc1S(=O)(=O)C(C)(C)C [Example 16, 3-(6-(tert-butylsulfonyl)-7-methoxyimidazo[1,2-a]pyridin-3-yl)-1-methyl-N-((2-methyl-2H-indazol-3-yl)methyl)-1H-pyrazole-5-carboxamide]	55 to 80	> 1000	> 2500
COc1cc2ncc(-c3cc(C(=O)NCc4ccsn4)n(C)n3)n2cc1S(=O)(=O)C(C)(C)C [Example 86, 3-(6-(tert-butylsulfonyl)-7-methoxyimidazo[1,2-a]pyridin-3-yl)-N-(isothiazol-3-ylmethyl)-1-methyl-1H-pyrazole-5-carboxamide]	≥ 80	10 to 100	100 to 500
COc1cc2ncc(-c3cc(C(=O)N[C@@H](C)C4CC4)n(C)n3)n2cc1S(=O)(=O)C(C)(C)C [Example 36, (S)-3-(6-(tert-butylsulfonyl)-7-methoxyimidazo[1,2-a]pyridin-3-yl)-N-(1-cyclopropylethyl)-1-methyl-1H-pyrazole-5-carboxamide]	30 to 55	> 1000	> 2500
COc1cc2ncc(-c3cc(C(=O)N[C@H](C)c4ccc(F)cc4)n(C)n3)n2cc1S(=O)(=O)C(C)(C)C [Example 12, (R)-3-(6-(tert-butylsulfonyl)-7-methoxyimidazo[1,2-a]pyridin-3-yl)-N-(1-(4-fluorophenyl)ethyl)-1-methyl-1H-pyrazole-5-carboxamide]	≥ 80	100 to 1000	500 to 2500
CCn1nc(-c2cnc3cc(OCCO)c(S(=O)(=O)C(C)(C)C)cn23)cc1C(=O)N[C@H](C)c1ccn(C)n1 [Example 122, (R)-3-(6-(tert-butylsulfonyl)-7-(2-hydroxyethoxy)imidazo[1,2-a]pyridin-3-yl)-1-ethyl-N-(1-(1-methyl-1H-pyrazol-3-yl)ethyl)-1H-pyrazole-5-carboxamide]	≥ 80	10 to 100	< 100
